The values that follow come from patent US7368578B2, “Five-membered heterocyclic compounds” (Takeda Pharmaceutical Company Limited, priority 2002, dated 2008).

Where a name gives a salt, the structure may show the parent alone.

As to `CCOP(=O)(/C=C/c1nc(-c2ccccc2)oc1COc1ccc(OCc2nc(-c3ccccc3)oc2C)cc1)OCC`, the melting point was in the range of 124 to 125 °C. In the case of `CCOP(=O)(CCc1cc(OCc2ccc(OCc3nc(-c4ccco4)oc3C)c(OC)c2)nn1-c1ccccc1)OCC` it was 76 to 77 °C. The same measure for `COc1cc(COc2nn(-c3ccccc3)cc2/C=C/P(=O)(OC)OC)ccc1OCc1nc(-c2ccco2)oc1C`: 107 to 108 °C; for `CCOP(=O)(/C=C/c1cn(-c2ccccc2)nc1OCc1ccc(OCc2nc(-c3ccccc3)oc2C)cc1)OCC`: 109 to 110 °C; for `CCOP(=O)(/C=C/c1cn(-c2ccccc2)nc1OCc1ccc(OCc2nc(-c3ccco3)oc2C)cc1)OCC`: 131 to 132 °C. The same measure for `CCOc1cc(COc2nn(-c3ccccc3)cc2/C=C/P(=O)(OCC)OCC)ccc1OCc1nc(-c2ccco2)oc1C`: 117 to 118 °C. In turn, `CCOP(=O)(/C=C/c1cn(-c2ccccc2)nc1OCc1ccc(OCc2nc(-c3ccco3)oc2C)c(C(=O)OC)c1)OCC` had a melting point of 92 to 93 °C.

For `CCOP(=O)(/C=C/c1cn(-c2ccccc2)nc1OCc1ccc(OCc2nc(-c3ccco3)oc2C)c(C(=O)O)c1)OCC`, the melting point lay in the range of 169 to 170 °C. As to `CCOP(=O)(/C=C/c1cn(-c2ccccc2)nc1OCc1ccc(OCc2nc(-c3ccco3)oc2C)nc1)OCC`, the melting point is 134 to 135 °C. The same measure for `CCOP(=O)(/C=C/c1cn(C)nc1OCc1ccc(OCc2nc(-c3ccco3)oc2C)c(OC)c1)OCC`: 72 to 73 °C. For `CCOP(=O)(/C=C/c1cn(CC)nc1OCc1ccc(OCc2nc(-c3ccco3)oc2C)c(OC)c1)OCC`, the melting point is 82 to 84 °C. In the case of `CCOP(=O)(/C=C/c1cn(CCO)nc1OCc1ccc(OCc2nc(-c3ccco3)oc2C)c(OC)c1)OCC` it was 95 to 96 °C; in that of `CCOP(=O)(OCC)/C(O)=C/c1cn(-c2ccccc2)nc1OCc1ccc(OCc2nc(-c3ccco3)oc2C)c(OC)c1`, 147 to 149 °C. The same measure for `CCOP(=O)(/C=C/C=C/c1cn(-c2ccccc2)nc1OCc1ccc(OCc2nc(-c3ccco3)oc2C)c(OC)c1)OCC`: 143 to 144 °C; for `CCOP(=O)(/C=C/c1cn(-c2ccccc2)nc1OCc1ccc(OCc2nc(N3CCCCC3)sc2C)c(OC)c1)OCC`: 95 to 96 °C. In the case of `CCOP(=O)(/C=C/c1cn(-c2ccccc2)nc1OCc1ccc(OCc2nc(-c3ccc(C(=O)O)cc3)oc2C)c(OC)c1)OCC` it was 194 to 195 °C; in that of `CCOP(=O)(/C=C/c1cn(-c2ccccc2)nc1OCc1ccc(OCc2nc(-c3ccc(C(N)=O)cc3)oc2C)c(OC)c1)OCC`, 146 to 148 °C. `CCOP(=O)(/C=C/c1cn(-c2ccccc2)nc1OCc1ccc(OCc2nc(-c3ccccc3)sc2C)c(OC)c1)OCC` returned a melting point of 110 to 111 °C. The same measure for `CCOP(=O)(/C=C/c1cn(-c2ccccc2)nc1OCc1ccc(OCc2nc(-c3ccc(C(=O)OC)cc3)oc2C)c(OC)c1)OCC`: 129 to 130 °C; for `CCOP(=O)(/C=C/c1cn(-c2ccccc2)nc1OCc1ccc(OCc2coc(-c3ccco3)n2)c(OC)c1)OCC`: 96 to 97 °C. As for `CCOP(=O)(/C=C/c1cn(-c2ccccc2)nc1OCc1ccc(OCc2sc(-c3ccccc3)nc2C)c(OC)c1)OCC`, the melting point is 113 to 114 °C. In the case of `CCOP(=O)(/C=C/c1cn(-c2ccccc2)nc1OCc1ccc(OCc2cn(-c3ccccn3)nc2C)c(OC)c1)OCC` it was 103 to 104 °C; in that of `CCOP(=O)(/C=C/c1cn(-c2ccccc2)nc1OCc1ccc(OCc2nc(-c3ccccc3)cn2C)c(OC)c1)OCC`, 144 to 145 °C. In the case of `CCOP(=O)(/C=C/c1cn(-c2ccccc2)nc1OCc1ccc(OCc2nc(-c3cccnc3)oc2C)c(OC)c1)OCC`, the melting point was in the range of 128 to 129 °C. In the case of `CCOP(=O)(/C=C/c1cn(-c2ccccc2)nc1OCc1ccc(OCc2nc(-c3cccc(O)c3)oc2C)c(OC)c1)OCC` it was 127 to 128 °C.

Compound `CCOP(=O)(/C=C/c1cn(-c2ccccc2)nc1OCc1ccc(OCc2nc(-c3cccc(C(=O)O)c3)oc2C)cc1)OCC` yielded a melting point of 153 to 155 °C. In the case of `CCOP(=O)(/C=C/c1cn(-c2ccccc2)nc1OCc1ccc(OCc2nc(N3CCOCC3)sc2C)c(OC)c1)OCC`, the melting point lay within 88 to 90 °C.

In the case of `CCOC(=O)c1ccc(-c2nc(COc3ccc(COc4nn(-c5ccccc5)cc4/C=C/P(=O)(OCC)OCC)cc3OC)c(C)o2)o1`, the melting point lay within 129 to 130 °C.

As to `CCOP(=O)(/C=C/c1cn(-c2ccccc2)nc1OCc1ccc(OCc2nc(-c3ccc(OC)c(C(=O)OC)c3)oc2C)c(OC)c1)OCC`, the melting point lay within 144 to 145 °C. In the case of `CCOP(=O)(/C=C/c1cnc(-c2ccccc2)nc1OCc1ccc(OCc2nc(-c3ccco3)oc2C)c(OC)c1)OCC` it was 103 to 104 °C; in that of `CCOP(=O)(/C=C\c1cnc(-c2ccccc2)nc1OCc1ccc(OCc2nc(-c3ccco3)oc2C)c(OC)c1)OCC`, 154 to 155 °C. In the case of `CCOC(=O)/C=C/c1nc(COc2ccc(COc3nn(-c4ccccc4)cc3/C=C/P(=O)(OCC)OCC)cc2OC)c(C)o1` it was 130 to 131 °C. In the case of `CCOP(=O)(/C=C/c1cn(-c2ccccc2)nc1OCc1ccc(OCc2nc(-c3ccc(C)c(C(=O)OC)c3)oc2C)c(OC)c1)OCC` it was 121 to 122 °C. Turning to `CCOP(=O)(/C=C/c1cn(-c2ccccc2)nc1OCc1ccc(OCc2nc(-c3ccc(C)c(C(=O)O)c3)oc2CC)c(OC)c1)OCC`, the melting point lay in the range of 165 to 166 °C.

`CCOP(=O)(/C=C/c1cn(-c2ccccc2)nc1OCc1ccc(OCc2nc(N3CCC(C(=O)O)CC3)sc2C)c(OC)c1)OCC` registered a melting point of 159 to 160 °C. The same measure for `CCOC(=O)c1ccc(-c2nc(COc3ccc(COc4nn(-c5ccccc5)cc4/C=C/P(=O)(OCC)OCC)cc3OC)c(C)o2)s1`: 114 to 115 °C. The same measure for `CCOP(=O)(/C=C/c1cn(-c2ccccc2)nc1OCc1ccc(OCc2nc(-c3ccc(C(=O)O)s3)oc2C)c(OC)c1)OCC`: 165 to 166 °C; for `CCOP(=O)(/C=C/c1cn(-c2ccccc2)nc1OCc1ccc(OCc2nc(-c3cccc(C#N)c3)oc2C)c(OC)c1)OCC`: 147 to 148 °C.

The compound `CCOP(=O)(/C=C\c1cn(-c2ccccc2)nc1OCc1ccc(OCc2nc(-c3cccc(C(=O)OC)c3)oc2C)c(OC)c1)OCC` yielded a melting point of 112 to 113 °C. In the case of `CCOP(=O)(/C=C\c1cn(-c2ccccc2)nc1OCc1ccc(OCc2nc(-c3cccc(C(=O)O)c3)oc2C)c(OC)c1)OCC` it was 158 to 159 °C; in that of `CCOP(=O)(/C=C/c1cn(-c2ccccc2)nc1OCc1ccc(OCc2nc(-c3ccc(CC(=O)[O-])cc3)oc2C)c(OC)c1)OCC.[Na+]`, 109 to 110 °C; in that of `COc1cc(COc2nn(-c3ccccc3)cc2C(C[N+](=O)[O-])C[N+](=O)[O-])ccc1OCc1nc(-c2ccco2)oc1C`, 126 to 127 °C. With `COc1cc(COc2nn(-c3ccccc3)cc2C=O)ccc1OCc1nc(-c2cccc(OS(C)(=O)=O)c2)oc1C` (as salt: methanesulfonate) [Example 228, 3-{4-[(4-{[(4-formyl-1-phenyl-1H-pyrazol-3-yl)oxy]methyl}-2-methoxyphenoxy)methyl]-5-methyl-1,3-oxazol-2-yl}phenyl methanesulfonate], the melting point lay in the range of 146 to 148 °C. The same measure for `CCOC(=O)c1cn(Cc2ccccc2)nc1OCc1ccc(OCc2nc(-c3ccccc3)oc2C)c(OC)c1` [Example 1, ethyl 1-benzyl-3-({3-methoxy-4-[(5-methyl-2-phenyl-1,3-oxazol-4-yl)methoxy]benzyl}oxy)-1H-pyrazole-4-carboxylate]: 154 to 155 °C; for `COc1cc(COc2nn(Cc3ccccc3)cc2C(=O)O)ccc1OCc1nc(-c2ccccc2)oc1C` [Example 2, 1-benzyl-3-({3-methoxy-4-[(5-methyl-2-phenyl-1,3-oxazol-4-yl)methoxy]benzyl}oxy)-1H-pyrazole-4-carboxylic acid]: 162 to 163 °C. Consider `COc1cc(COc2nn(Cc3ccccc3)cc2C(N)=O)ccc1OCc1nc(-c2ccccc2)oc1C` [Example 3, 1-benzyl-3-({3-methoxy-4-[(5-methyl-2-phenyl-1,3-oxazol-4-yl)methoxy]benzyl}oxy)-1H-pyrazole-4-carboxamide], for which the melting point is 164 to 165 °C. As to `COc1cc(COc2nn(Cc3ccccc3)cc2CO)ccc1OCc1nc(-c2ccccc2)oc1C` [Example 4, [1-benzyl-3-({3-methoxy-4-[(5-methyl-2-phenyl-1,3-oxazol-4-yl)methoxy]benzyl}oxy)-1H-pyrazol-4-yl]methanol], the melting point was 90 to 91 °C.

For `COc1cc(COc2nn(Cc3ccccc3)cc2C=O)ccc1OCc1nc(-c2ccccc2)oc1C` [Example 5, 1-benzyl-3-({3-methoxy-4-[(5-methyl-2-phenyl-1,3-oxazol-4-yl)methoxy]benzyl}oxy)-1H-pyrazole-4-carbaldehyde], the melting point was 151 to 152 °C.

In the case of `CCOC(=O)c1cn(Cc2ccccc2)nc1OCc1ccc(OCc2nc(-c3ccco3)oc2C)cc1` [Example 6, ethyl 1-benzyl-3-[(4-{[2-(2-furyl)-5-methyl-1,3-oxazol-4-yl]methoxy}benzyl)oxy]-1H-pyrazole-4-carboxylate], the melting point is 101 to 102 °C.

Take `Cc1oc(-c2ccco2)nc1COc1ccc(COc2nn(Cc3ccccc3)cc2C(=O)O)cc1` [Example 7, 1-benzyl-3-[(4{[2-(2-furyl)-5-methyl-1,3-oxazol-4-yl]methoxy}benzyl)oxy]-1H-pyrazole-4-carboxylic acid]: the melting point was 170 to 171 °C.

`Cc1oc(-c2ccco2)nc1COc1ccc(COc2nn(Cc3ccccc3)cc2C(N)=O)cc1` [Example 8, 1-benzyl-3-[(4{[2-(2-furyl)-5-methyl-1,3-oxazol-4-yl]methoxy}benzyl)oxy]-1H-pyrazole-4-carboxamide]: the melting point lay in the range of 139 to 140 °C. In the case of `CC(=O)NC(=O)c1cn(Cc2ccccc2)nc1OCc1ccc(OCc2nc(-c3ccco3)oc2C)cc1` [Example 9, N-acetyl-1-benzyl-3-[(4{[2-(2-furyl)-5-methyl-1,3-oxazol-4-yl]methoxy}benzyl)oxy]-1H-pyrazole-4-carboxamide] it was 193 to 194 °C.
